Assay results: patent publication US11331299B2, “Medicinal use of serrulatane diterpenes” (The University of Sydney, priority 2016, dated 2022)
Counter-ions that a name gives are not always drawn. Like-named read-outs stand apart in the source and are kept apart here.

Legend:
USP 16 (h) = USP 16 (h) (Homo sapiens, UniProt Q9Y5T5); experiment: Epigenetic enzyme assay, Ubiquitin modifying enzymes; format: biochemical; conditions: Table 10; read-out: Reference IC50
ATAD2B (h) bromodomain = molecular target: T1, ATAD2B (h) bromodomain (Homo sapiens, UniProt Q9ULI0); experiment: Epigenetic binding assay, Bromodomain; conditions: Table 4; read-out: Reference IC50
T1 construct: ATAD2B bromodomain; host or cells: E. coli
T1 sequence (Q9ULI0 951-1066 limits assumed): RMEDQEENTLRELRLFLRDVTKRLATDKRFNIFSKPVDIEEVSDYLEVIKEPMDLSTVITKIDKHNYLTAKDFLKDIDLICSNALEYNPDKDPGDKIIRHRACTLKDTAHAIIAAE

PB1(4) (h) bromodomain = molecular target: T2, PB1(4) (h) bromodomain (Homo sapiens, UniProt Q86U86); experiment: Epigenetic binding assay, Bromodomain; conditions: Table 4; read-out: Reference IC50
T2 construct: Bromodomain
T2 sequence (Q86U86 518-625 limits assumed): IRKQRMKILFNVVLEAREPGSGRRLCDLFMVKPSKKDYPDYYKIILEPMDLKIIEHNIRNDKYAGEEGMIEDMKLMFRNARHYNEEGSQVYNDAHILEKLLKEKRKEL

USP 10 (h) = USP 10 (h) (Homo sapiens, UniProt Q14694); experiment: Epigenetic enzyme assay, Ubiquitin modifying enzymes; format: biochemical; conditions: Table 10; read-out: Reference IC50
Chain of USP 10 (h) (Q14694 whole entry): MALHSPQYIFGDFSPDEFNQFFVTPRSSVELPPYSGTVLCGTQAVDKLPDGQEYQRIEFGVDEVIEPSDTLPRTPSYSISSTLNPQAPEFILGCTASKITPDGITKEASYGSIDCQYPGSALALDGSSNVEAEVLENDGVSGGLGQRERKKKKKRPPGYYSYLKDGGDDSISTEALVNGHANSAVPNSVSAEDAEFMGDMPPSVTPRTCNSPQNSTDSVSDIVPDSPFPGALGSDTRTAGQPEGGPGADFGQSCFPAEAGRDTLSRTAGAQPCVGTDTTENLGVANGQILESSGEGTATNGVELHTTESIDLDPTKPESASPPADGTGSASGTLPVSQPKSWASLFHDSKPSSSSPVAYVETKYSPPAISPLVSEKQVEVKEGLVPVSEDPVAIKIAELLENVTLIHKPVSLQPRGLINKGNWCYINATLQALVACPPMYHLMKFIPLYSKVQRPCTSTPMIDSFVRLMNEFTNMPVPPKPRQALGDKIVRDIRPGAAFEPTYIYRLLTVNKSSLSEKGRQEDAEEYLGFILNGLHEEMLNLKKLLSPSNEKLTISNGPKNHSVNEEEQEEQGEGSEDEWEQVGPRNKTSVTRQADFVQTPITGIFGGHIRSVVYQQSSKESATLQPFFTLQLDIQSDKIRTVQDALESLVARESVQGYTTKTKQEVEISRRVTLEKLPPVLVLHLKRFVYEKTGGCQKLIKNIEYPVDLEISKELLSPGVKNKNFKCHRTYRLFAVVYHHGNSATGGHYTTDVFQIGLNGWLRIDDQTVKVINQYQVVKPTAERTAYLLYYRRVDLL

Lipid Peroxidase = experiment: Lipid Peroxidase; format: biochemical, Dunkin Hartley Guinea pig; conditions: concentration-response 10 to 0.01 μM
Wi38 = experiment: OncoPanel normal cell proliferation assay (3-day); format: cell-based; conditions: Homo sapiens, WI-38, 72 h, Wi38, lung fibroblast, 3-day incubation
CCD 841 CoN = experiment: OncoPanel normal cell proliferation assay (3-day); format: cell-based; conditions: Homo sapiens, 72 h, colon epithelial, 3-day incubation
HMEC = experiment: OncoPanel normal cell proliferation assay (3-day); format: cell-based
HREC = experiment: OncoPanel normal cell proliferation assay (3-day); format: cell-based; conditions: 72 h, renal mixed epithelial, 3-day incubation
[1] = test system: 4 normal cell types, CCD 841 CoN, HMEC, HREC and Wi38; experiment: OncoPanel normal cell proliferation assay (3-day), panel; format: cell-based; conditions: the other three cell lines (CCD 841 CoN, HREC, Wi38)
[2] = test system: IL-17A secretion from human PBMC stimulated with antiCD3/antiCD28-coated beads; conditions: assay description, reference compound, cited from earlier work
WHSC1(h) (NSD2(h)) = molecular target: T3, WHSC1(h) (NSD2(h)) (Homo sapiens, UniProt O96028); experiment: Epigenetic enzyme assay, Methyltransferases (MTs); format: biochemical; conditions: Table 10; read-out: Reference IC50
T3 sequence (O96028 1-1365): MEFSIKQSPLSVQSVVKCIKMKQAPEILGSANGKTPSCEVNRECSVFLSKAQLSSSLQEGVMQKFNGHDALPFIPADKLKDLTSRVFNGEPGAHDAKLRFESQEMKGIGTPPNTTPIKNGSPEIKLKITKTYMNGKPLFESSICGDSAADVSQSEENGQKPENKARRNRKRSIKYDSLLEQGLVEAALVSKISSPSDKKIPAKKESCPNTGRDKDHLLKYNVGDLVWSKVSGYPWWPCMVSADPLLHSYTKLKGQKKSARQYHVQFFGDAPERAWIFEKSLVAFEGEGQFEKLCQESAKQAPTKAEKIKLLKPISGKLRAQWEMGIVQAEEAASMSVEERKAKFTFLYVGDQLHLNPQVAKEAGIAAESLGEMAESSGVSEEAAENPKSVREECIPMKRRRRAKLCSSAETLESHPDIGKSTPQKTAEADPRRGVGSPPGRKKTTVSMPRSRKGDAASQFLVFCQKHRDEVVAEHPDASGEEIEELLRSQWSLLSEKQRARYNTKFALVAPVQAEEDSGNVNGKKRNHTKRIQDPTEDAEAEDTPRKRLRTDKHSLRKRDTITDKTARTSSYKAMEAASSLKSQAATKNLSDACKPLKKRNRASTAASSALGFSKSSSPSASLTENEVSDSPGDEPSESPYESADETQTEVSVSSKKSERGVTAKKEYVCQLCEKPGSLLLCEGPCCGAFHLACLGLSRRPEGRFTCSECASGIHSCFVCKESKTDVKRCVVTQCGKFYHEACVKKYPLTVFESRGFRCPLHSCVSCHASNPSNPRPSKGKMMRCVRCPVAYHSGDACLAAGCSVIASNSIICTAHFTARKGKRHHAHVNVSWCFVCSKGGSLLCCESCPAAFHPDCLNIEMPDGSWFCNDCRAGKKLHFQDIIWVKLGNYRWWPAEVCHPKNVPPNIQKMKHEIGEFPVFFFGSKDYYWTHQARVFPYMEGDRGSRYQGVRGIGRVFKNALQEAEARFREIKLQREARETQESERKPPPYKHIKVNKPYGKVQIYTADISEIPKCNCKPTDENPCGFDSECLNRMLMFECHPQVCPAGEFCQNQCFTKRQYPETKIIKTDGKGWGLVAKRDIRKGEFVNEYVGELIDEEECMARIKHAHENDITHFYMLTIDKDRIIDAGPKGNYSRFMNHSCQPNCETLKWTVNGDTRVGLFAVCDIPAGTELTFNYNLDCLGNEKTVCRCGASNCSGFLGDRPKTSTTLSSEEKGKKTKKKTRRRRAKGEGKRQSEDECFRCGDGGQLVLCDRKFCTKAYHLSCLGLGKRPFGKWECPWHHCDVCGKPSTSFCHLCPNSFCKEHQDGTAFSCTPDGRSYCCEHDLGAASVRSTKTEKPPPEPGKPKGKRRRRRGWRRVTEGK

NSD1 (h) = NSD1 (h) (Homo sapiens, UniProt Q96L73); experiment: Epigenetic enzyme assay, Methyltransferases (MTs); format: biochemical
Chain of NSD1 (h) (Q96L73 whole entry): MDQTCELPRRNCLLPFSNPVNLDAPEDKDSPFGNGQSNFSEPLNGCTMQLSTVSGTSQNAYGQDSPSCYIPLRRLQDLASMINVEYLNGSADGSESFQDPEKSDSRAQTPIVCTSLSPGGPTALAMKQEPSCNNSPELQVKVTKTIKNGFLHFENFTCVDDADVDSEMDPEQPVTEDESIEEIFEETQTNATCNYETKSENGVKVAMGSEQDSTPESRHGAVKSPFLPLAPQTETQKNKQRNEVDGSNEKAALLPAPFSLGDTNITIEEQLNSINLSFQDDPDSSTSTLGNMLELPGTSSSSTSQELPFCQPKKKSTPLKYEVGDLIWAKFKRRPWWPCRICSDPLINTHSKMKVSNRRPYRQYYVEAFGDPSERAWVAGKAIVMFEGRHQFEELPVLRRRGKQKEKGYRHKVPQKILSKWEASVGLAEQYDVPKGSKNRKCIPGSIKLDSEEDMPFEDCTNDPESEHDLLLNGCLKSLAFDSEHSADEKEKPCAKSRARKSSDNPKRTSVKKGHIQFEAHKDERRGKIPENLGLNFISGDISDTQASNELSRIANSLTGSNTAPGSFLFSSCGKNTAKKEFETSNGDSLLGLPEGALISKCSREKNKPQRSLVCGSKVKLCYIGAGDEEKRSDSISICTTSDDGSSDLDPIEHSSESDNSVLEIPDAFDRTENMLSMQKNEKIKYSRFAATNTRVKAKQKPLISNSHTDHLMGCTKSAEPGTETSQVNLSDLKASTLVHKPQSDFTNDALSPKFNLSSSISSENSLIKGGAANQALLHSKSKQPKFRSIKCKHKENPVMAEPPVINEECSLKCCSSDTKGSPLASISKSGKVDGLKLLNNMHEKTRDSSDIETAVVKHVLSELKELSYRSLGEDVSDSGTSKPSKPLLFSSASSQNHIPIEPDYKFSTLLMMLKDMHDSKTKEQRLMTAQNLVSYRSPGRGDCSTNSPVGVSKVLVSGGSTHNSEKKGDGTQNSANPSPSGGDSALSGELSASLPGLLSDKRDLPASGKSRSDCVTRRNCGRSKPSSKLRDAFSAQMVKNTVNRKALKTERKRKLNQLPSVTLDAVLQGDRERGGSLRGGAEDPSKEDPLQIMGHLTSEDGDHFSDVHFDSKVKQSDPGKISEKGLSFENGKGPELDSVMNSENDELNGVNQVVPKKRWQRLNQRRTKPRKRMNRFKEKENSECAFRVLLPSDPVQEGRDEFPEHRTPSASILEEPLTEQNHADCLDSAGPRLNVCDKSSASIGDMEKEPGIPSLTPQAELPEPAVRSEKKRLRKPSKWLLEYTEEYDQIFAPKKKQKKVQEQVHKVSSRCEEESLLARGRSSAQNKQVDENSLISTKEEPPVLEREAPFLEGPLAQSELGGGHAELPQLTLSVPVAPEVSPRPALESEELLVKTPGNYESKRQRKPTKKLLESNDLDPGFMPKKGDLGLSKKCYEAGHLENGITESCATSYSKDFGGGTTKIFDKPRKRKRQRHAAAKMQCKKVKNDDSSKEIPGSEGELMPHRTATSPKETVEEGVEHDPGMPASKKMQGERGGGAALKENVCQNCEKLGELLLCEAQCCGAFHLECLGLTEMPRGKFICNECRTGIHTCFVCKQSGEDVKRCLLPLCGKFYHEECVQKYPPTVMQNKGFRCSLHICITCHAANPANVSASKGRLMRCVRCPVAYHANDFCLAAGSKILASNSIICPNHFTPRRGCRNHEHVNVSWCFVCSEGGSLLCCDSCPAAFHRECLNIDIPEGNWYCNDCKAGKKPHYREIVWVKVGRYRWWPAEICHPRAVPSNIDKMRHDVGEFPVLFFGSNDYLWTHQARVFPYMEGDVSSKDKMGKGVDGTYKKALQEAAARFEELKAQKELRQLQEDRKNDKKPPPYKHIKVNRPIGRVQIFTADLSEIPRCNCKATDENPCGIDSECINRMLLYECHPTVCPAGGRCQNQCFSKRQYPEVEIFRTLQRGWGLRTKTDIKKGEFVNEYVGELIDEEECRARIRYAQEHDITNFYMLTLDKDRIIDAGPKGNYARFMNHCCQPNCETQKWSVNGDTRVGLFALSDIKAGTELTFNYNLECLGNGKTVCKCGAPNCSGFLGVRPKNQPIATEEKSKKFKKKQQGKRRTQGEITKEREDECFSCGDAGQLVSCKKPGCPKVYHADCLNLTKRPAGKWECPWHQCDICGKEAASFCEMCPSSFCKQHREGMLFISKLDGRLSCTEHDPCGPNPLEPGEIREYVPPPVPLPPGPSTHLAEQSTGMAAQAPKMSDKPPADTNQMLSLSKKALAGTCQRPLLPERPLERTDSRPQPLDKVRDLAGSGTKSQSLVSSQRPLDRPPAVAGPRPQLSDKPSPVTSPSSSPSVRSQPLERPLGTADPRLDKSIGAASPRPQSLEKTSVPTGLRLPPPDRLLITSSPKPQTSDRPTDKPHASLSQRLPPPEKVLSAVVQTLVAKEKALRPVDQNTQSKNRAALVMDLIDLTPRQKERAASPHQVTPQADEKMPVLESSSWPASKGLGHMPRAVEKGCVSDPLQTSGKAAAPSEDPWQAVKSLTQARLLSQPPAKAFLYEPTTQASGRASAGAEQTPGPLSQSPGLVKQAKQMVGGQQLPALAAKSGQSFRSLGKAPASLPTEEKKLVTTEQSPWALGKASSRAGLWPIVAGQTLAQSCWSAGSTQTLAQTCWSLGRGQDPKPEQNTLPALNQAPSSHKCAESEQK

SETD8 (h) = molecular target: T4, SETD8 (h) (Homo sapiens, UniProt Q9NQR1); experiment: Epigenetic enzyme assay, Methyltransferases (MTs); format: biochemical; conditions: Table 10; read-out: Reference IC50
T4 sequence (Q9NQR1 1-393): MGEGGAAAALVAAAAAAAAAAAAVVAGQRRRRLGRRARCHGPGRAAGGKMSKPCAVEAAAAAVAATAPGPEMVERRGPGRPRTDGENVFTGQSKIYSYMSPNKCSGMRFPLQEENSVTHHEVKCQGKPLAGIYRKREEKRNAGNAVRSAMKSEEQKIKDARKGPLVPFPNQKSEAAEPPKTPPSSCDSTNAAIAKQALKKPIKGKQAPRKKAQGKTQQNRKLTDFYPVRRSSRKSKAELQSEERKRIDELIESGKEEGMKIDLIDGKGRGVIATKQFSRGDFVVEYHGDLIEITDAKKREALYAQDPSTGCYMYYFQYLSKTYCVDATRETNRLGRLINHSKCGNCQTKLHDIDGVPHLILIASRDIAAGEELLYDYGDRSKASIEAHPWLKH

NSD3/WHSC1L1 (h) = molecular target: T5, NSD3/WHSC1L1 (h) (Homo sapiens, UniProt Q9BZ95); experiment: Epigenetic enzyme assay, Methyltransferases (MTs); format: biochemical; conditions: Table 10; read-out: Reference IC50
T5 sequence (Q9BZ95 1-1437): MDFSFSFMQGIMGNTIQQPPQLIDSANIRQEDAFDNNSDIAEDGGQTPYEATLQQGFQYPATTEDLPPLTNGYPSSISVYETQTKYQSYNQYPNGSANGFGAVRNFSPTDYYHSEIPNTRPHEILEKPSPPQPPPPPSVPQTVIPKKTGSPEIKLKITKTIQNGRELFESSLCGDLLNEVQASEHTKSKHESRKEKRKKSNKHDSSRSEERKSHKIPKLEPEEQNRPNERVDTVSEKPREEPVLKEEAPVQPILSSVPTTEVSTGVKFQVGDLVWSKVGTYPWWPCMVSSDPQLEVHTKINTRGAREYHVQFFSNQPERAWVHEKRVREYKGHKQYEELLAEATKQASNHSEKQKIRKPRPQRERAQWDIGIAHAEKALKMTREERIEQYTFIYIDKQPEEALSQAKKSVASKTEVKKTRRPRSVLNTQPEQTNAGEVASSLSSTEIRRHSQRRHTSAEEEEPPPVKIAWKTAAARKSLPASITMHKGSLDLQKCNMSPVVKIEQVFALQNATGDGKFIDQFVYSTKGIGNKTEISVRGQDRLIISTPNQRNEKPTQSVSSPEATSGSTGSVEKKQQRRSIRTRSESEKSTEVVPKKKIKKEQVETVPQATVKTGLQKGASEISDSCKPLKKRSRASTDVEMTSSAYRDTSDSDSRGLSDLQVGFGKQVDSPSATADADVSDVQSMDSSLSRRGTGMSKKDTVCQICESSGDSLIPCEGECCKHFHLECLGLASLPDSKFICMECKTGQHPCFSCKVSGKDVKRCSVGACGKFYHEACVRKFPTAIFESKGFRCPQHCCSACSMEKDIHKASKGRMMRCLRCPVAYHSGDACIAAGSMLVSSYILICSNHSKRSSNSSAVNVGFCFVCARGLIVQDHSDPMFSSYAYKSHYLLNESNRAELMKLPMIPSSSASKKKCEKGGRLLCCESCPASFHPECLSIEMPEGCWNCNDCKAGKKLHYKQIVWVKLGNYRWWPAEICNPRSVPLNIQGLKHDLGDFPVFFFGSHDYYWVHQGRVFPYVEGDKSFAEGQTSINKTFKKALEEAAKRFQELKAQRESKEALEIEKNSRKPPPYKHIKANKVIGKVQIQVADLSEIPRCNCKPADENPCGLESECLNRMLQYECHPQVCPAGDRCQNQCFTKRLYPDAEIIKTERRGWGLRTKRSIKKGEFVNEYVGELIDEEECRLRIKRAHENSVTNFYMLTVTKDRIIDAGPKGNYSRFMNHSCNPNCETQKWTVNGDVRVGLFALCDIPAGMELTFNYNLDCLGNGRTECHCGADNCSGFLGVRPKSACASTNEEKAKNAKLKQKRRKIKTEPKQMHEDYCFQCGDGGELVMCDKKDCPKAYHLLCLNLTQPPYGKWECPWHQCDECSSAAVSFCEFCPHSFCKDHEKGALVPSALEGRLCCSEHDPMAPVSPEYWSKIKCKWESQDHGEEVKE

[3] = molecular target: T6, sirtuin 2 (h) (inhibitor effect) (Homo sapiens, UniProt Q8IXJ6); experiment: Epigenetic enzyme assay, Sirtuins; format: biochemical; conditions: Table 10; read-out: Reference IC50
T6 sequence (Q8IXJ6 1-389): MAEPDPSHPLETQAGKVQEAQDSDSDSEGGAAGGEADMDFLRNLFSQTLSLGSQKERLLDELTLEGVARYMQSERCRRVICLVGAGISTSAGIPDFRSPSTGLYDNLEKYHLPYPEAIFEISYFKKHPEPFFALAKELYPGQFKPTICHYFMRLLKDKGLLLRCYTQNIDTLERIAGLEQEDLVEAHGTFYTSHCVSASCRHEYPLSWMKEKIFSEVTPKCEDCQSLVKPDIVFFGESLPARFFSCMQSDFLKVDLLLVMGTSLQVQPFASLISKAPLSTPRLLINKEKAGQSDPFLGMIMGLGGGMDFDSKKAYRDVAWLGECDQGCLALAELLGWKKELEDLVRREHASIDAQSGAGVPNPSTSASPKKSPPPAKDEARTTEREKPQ

Chain of USP 16 (h) (Q9Y5T5 whole entry): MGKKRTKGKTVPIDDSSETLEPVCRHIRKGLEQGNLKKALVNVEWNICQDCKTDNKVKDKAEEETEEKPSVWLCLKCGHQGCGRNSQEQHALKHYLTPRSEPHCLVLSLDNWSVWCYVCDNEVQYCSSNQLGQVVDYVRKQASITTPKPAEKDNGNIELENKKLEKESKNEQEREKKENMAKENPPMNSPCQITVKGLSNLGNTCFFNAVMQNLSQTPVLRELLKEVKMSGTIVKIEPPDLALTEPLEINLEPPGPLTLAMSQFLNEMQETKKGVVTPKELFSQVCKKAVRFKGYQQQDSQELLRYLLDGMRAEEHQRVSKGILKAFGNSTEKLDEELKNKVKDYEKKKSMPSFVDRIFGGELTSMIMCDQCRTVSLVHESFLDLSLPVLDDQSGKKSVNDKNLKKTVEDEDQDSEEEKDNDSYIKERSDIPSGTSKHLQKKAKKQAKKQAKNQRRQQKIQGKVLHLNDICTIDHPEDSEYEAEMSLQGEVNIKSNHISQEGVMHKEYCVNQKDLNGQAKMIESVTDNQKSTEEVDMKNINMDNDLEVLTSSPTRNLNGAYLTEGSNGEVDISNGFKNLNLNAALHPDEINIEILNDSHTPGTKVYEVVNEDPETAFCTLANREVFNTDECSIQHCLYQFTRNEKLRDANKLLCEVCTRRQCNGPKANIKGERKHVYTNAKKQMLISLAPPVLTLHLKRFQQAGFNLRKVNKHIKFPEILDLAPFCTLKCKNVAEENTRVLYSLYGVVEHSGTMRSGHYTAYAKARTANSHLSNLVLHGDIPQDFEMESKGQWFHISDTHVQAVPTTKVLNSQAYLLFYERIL

Structure (SMILES): NC(=O)CI [Iodoacetamide, reference compound]
- IC50 (USP 16 (h)): 3.5 µM

Structure (SMILES): Cc1cc(/N=N/c2cc(S(=O)(=O)O)c(C)cc2C)c(N)cc1O [Ischemin sodium salt, reference compound]
- IC50 (ATAD2B (h) bromodomain): 76.6 µM
- IC50 (PB1(4) (h) bromodomain): 6.8 µM

Structure (SMILES): CN1C(=O)C=CC1=O [N-Methylmaleimide, reference compound]
- IC50 (USP 10 (h)): 1000 µM

Structure (SMILES): CCCOC(=O)c1cc(O)c(O)c(O)c1 [N-Propyl Gallate, reference compound]
- IC50 (Lipid Peroxidase): 206 µM

Structure (SMILES): CC(=O)O[C@H]1C(=O)[C@@]2(C)[C@H]([C@H](OC(=O)c3ccccc3)[C@]3(O)C[C@H](OC(=O)[C@H](O)[C@@H](NC(=O)c4ccccc4)c4ccccc4)C(C)=C1C3(C)C)[C@]1(OC(C)=O)CO[C@@H]1C[C@@H]2O [Paclitaxel, paclitaxel]
- EC50 (Wi38; read-out: Cell Count EC50): 0.0039 µM
- GI50 (Wi38; read-out: Cell Count GI50): 0.0036 µM
- IC50 (Wi38; read-out: Cell Count IC50): 0.00941 µM
- EC50 (CCD 841 CoN; read-out: Cell Count EC50): 0.0119 µM
- GI50 (CCD 841 CoN; read-out: Cell Count GI50): 0.0221 µM
- toxicity towards normal cells (HMEC): low toxicity
- EC50 (HMEC; Homo sapiens, 72 h, HMEC, mammary epithelial, 3-day incubation, read-out: Cell Count EC50): > 30 µM
- GI50 (HMEC; Homo sapiens, 72 h, HMEC, mammary epithelial, 3-day incubation, read-out: Cell Count GI50): > 30 µM
- IC50 (HMEC; Homo sapiens, 72 h, HMEC, mammary epithelial, 3-day incubation, read-out: Cell Count IC50): > 30 µM
- EC50 (HREC; read-out: Cell Count EC50): 0.00172 µM
- GI50 (HREC; read-out: Cell Count GI50): 0.0016 µM
- IC50 (HREC; read-out: Cell Count IC50): 0.0484 µM
- toxicity towards normal cells [1]: high toxicity

Structure (SMILES): C=CC[C@@H]1/C=C(\C)C[C@H](C)C[C@H](OC)[C@H]2O[C@@](O)(C(=O)C(=O)N3CCCC[C@H]3C(=O)O[C@H](/C(C)=C/[C@@H]3CC[C@@H](O)[C@H](OC)C3)[C@H](C)[C@@H](O)CC1=O)[C@H](C)C[C@@H]2OC [Tacrolimus]
- Emax (plateau of the fitted curve), IL-17A release [2]: approximately 90%
- EC50 ([2]; read-out: EC50, inhibition of IL-17A release): ~0.00034 µM

Structure (SMILES): CN1C(=O)[C@@]23C[C@]4([C@]56C[C@@]78SS[C@@](CO)(C(=O)N7[C@H]5Nc5ccccc56)N(C)C8=O)c5ccccc5N[C@@H]4N2C(=O)[C@]1(CO)SS3 [chaetocin, reference compound]
- IC50 (WHSC1(h) (NSD2(h))): 0.48 µM
- IC50 (NSD1 (h); Table 10, read-out: Reference IC50): 0.13 µM
- IC50 (NSD1 (h); Table 11, inhibition/concentration-response curve, read-out: IC50): 0.24 µM

Structure (SMILES): O=C([O-])c1ccccc1-c1c2cc(Br)c(=O)cc-2oc2[c]([Hg+])c([O-])c(Br)cc12.[Na+].[Na+].[OH-] [mercurochrome, reference compound]
- IC50 (SETD8 (h)): 2.4 µM

Structure (SMILES): Cc1ccc(C(=O)Nc2ccc(S(=O)(=O)O)c3cc(S(=O)(=O)O)cc(S(=O)(=O)O)c23)cc1NC(=O)c1cccc(NC(=O)Nc2cccc(C(=O)Nc3cc(C(=O)Nc4ccc(S(=O)(=O)O)c5cc(S(=O)(=O)O)cc(S(=O)(=O)O)c45)ccc3C)c2)c1 [suramin, reference compound]
- IC50 (NSD3/WHSC1L1 (h)): 1.5 µM
- IC50 [3]: 21 µM
